Results as given in the supplement of paper PMC11208160.

Experiment: recombinant barcode read abundance after kanamycin selection (control-corrected) (log10(CPM+1)); higher = more efficient recombination; sequences stand for … in AGTGCAGAGAAAATCGGCCAGTTTTCTCTGCCTGCAGTCCGCATGCCGT…AGATTTATGCAGCGGACTGCCTTTCTCCCAAAGTGATAAACCGGACAGTATCATGGACCGGTTTTCCCGGTAATCCGTATTTGCAAGGTTGGTTTCACT; site = the 11-nt target
Summary of the method: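 A promoter, a target, a barcode and the first 104 bridge RNA bases under J23119 made up each oligo. Oligos were Gibson-cloned into a vector bearing the other 73 bp and a T7-inducible recombinase, then co-electroporated into E. coli with a donor plasmid and plated in duplicate on chloramphenicol/ampicillin LB agar (control) or chloramphenicol/ampicillin/kanamycin with 0.1 mM IPTG. Recombination efficiency is the averaged, control-corrected counts per million of recombinant-junction barcodes. Reported values are log10(CPM+1).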
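Also: IS621 recombinase and bridge RNA in Escherichia coli cells.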

“TGGAACCCTTGGGTTCTAACCTGTTGCGG (site TGGCACCCTCC)” and “TGGAGAGCTTGGGTTCTAACCTGTTGCAG (site ACCTTGCCTTA)” are within 0.2 log units of each other in “recombinant barcode read abundance (log10)” value: 0.0841 for the first, 0.0256 for the second.

First: TGGAGAGCTTGGGTTCTAACCTGTTGCAG (site TGGAGAGCTCT)
Second: TGGAGCCCTTGGGTTCTAACCTGTTGCAC (site TGGAGCCCTAT)
The “recombinant barcode read abundance (log10)” value of the first is higher: 2.3 for the first, 0.0355 for the second.

“TGGAGCCCTTGGGTTCTAACCTGTTGCAC (site TGGAGCCCTCT)” and “TGGAGCCCTTGGGTTCTAACCTGTTGCAC (site TGGAGCCCTGT)” are within 0.2 log units of each other in “recombinant barcode read abundance (log10)” value: 0.114 for the first, 0.253 for the second.

Compared with “TGGAGCCCTTGGGTTCTAACCTGTTGCAC (site TGGAGCCCTTT)”, “TGGAGTCCTTGGGTTCTAACCTGTTGCTT (site TGGAGCCCTAA)” is higher in “recombinant barcode read abundance (log10)” value: 0.0674 for the first, 0.276 for the second.

First: TGGAGTCCTTGGGTTCTAACCTGTTGCTT (site TGGAGTCCTAA)
Second: TGGATCACTTGGGTTCTAACCTGTTGCCT (site TGGAACACTAG)
The “recombinant barcode read abundance (log10)” value of the first is higher: 0.605 for the first, 0.0491 for the second.

“TGGATCACTTGGGTTCTAACCTGTTGCCT (site TGGACCACTAG)” and “TGGATCACTTGGGTTCTAACCTGTTGCCT (site TGGAGCACTAG)” are within 0.2 log units of each other in “recombinant barcode read abundance (log10)” value: 0.0457 for the first, 0.0771 for the second.

Going from “TGGATCACTTGGGTTCTAACCTGTTGCCT (site TGGATCACTAG)” to “TGGCCCTCTTGGGTTCTAACCTGTTGCTC (site TGGCCCTCTAA)”, the “recombinant barcode read abundance (log10)” value falls from 1.09 to 0.0244.

First: TGGCCCTCTTGGGTTCTAACCTGTTGCTC (site TGGCCCTCTCA)
Second: TGGCCCTCTTGGGTTCTAACCTGTTGCTC (site TGGCCCTCTGA)
The “recombinant barcode read abundance (log10)” value of the first is lower: 0.304 for the first, 1.79 for the second.

“TGGCCCTCTTGGGTTCTAACCTGTTGCTC (site TGGCCCTCTTA)” and “TGGCGTACTTGGGTTCTAACCTGTTGCCT (site TGGAGTACTAG)” are within 0.2 log units of each other in “recombinant barcode read abundance (log10)” value: 0.0751 for the first, 0 for the second.

“TGGCGTACTTGGGTTCTAACCTGTTGCCT (site TGGCGTACTAG)” and “TGGCGTACTTGGGTTCTAACCTGTTGCCT (site TGGGGTACTAG)” are within 0.2 log units of each other in “recombinant barcode read abundance (log10)” value: 0.229 for the first, 0.0637 for the second.

“TGGCGTACTTGGGTTCTAACCTGTTGCCT (site TGGTGTACTAG)” and “TGGCTAGCTTGGGTTCTAACCTGTTGCCT (site TGACTAGCTAG)” are within 0.2 log units of each other in “recombinant barcode read abundance (log10)” value: 0.149 for the first, 0.052 for the second.

“TGGCTAGCTTGGGTTCTAACCTGTTGCCT (site TGCCTAGCTAG)” and “TGGCTAGCTTGGGTTCTAACCTGTTGCCT (site TGGCTAGCTAG)” are within 0.2 log units of each other in “recombinant barcode read abundance (log10)” value: 0.0442 for the first, 0.242 for the second.

“TGGCTAGCTTGGGTTCTAACCTGTTGCCT (site TGTCTAGCTAG)” and “TGGGACCCTTGGGTTCTAACCTGTTGCAT (site TGCGACCCTAA)” are within 0.2 log units of each other in “recombinant barcode read abundance (log10)” value: 0.0845 for the first, 0.261 for the second.

Going from “TGGGACCCTTGGGTTCTAACCTGTTGCAT (site TGGGACCCTAT)” to “TGGGCGGCTTGGGTTCTAACCTGTTGCCT (site TAGGTGGCTAG)”, the “recombinant barcode read abundance (log10)” value falls from 1.25 to 0.133.

Going from “TGGGCGGCTTGGGTTCTAACCTGTTGCCT (site TGGGCGGCTAG)” to “TGGGGCCCTTGGGTTCTAACCTGTTGCCG (site GCAATTACTAA)”, the “recombinant barcode read abundance (log10)” value falls from 0.411 to 0.09.

Going from “TGGGGCCCTTGGGTTCTAACCTGTTGCCG (site TGGGGCCCTCG)” to “TGGGTGACTTGGGTTCTAACCTGTTGCCT (site GCCTGCCCTCA)”, the “recombinant barcode read abundance (log10)” value falls from 1.9 to 0.422.

“TGGGTGACTTGGGTTCTAACCTGTTGCCT (site TGGGTGACTAG)” and “TGGTAACCTTGGGTTCTAACCTGTTGCCT (site AGGTAACCTAG)” are within 0.2 log units of each other in “recombinant barcode read abundance (log10)” value: 0.057 for the first, 0.0194 for the second.

“TGGTAACCTTGGGTTCTAACCTGTTGCCT (site CGGTAACCTAG)” and “TGGTAACCTTGGGTTCTAACCTGTTGCCT (site GGGTAACCTAG)” are within 0.2 log units of each other in “recombinant barcode read abundance (log10)” value: 0.172 for the first, 0.148 for the second.

“TGGTAACCTTGGGTTCTAACCTGTTGCCT (site TGGTAACCTAG)” and “TGGTATGCTTGGGTTCTAACCTGTTGCCT (site TGGTATACTAG)” are within 0.2 log units of each other in “recombinant barcode read abundance (log10)” value: 0.571 for the first, 0.5 for the second.

Compared with “TGGTATGCTTGGGTTCTAACCTGTTGCCT (site TGGTATCCTAG)”, “TGGTATGCTTGGGTTCTAACCTGTTGCCT (site TGGTATGCTAG)” is higher in “recombinant barcode read abundance (log10)” value: 0.0685 for the first, 1.39 for the second.

“TGGTATGCTTGGGTTCTAACCTGTTGCCT (site TGGTATTCTAG)” and “TGGTCTACTTGGGTTCTAACCTGTTGCTT (site TGATCTACTAA)” are the same in “recombinant barcode read abundance (log10)” value: 0 for the first, 0 for the second.

“TGGTCTACTTGGGTTCTAACCTGTTGCTT (site TGCTCTACTAA)” and “TGGTCTACTTGGGTTCTAACCTGTTGCTT (site TGGTCTACTAA)” are within 0.2 log units of each other in “recombinant barcode read abundance (log10)” value: 0.0743 for the first, 0.154 for the second.

“TGGTCTACTTGGGTTCTAACCTGTTGCTT (site TGTTCTACTAA)” and “TGGTTCGCTTGGGTTCTAACCTGTTGCCT (site TGGTACGCTAG)” are within 0.2 log units of each other in “recombinant barcode read abundance (log10)” value: 0.0113 for the first, 0.0339 for the second.

“TGGTTCGCTTGGGTTCTAACCTGTTGCCT (site TGGTCCGCTAG)” and “TGGTTCGCTTGGGTTCTAACCTGTTGCCT (site TGGTGCGCTAG)” are within 0.2 log units of each other in “recombinant barcode read abundance (log10)” value: 0.0365 for the first, 0.0185 for the second.

Going from “TGGTTCGCTTGGGTTCTAACCTGTTGCCT (site TGGTTCGCTAG)” to “TGTAATACTTGGGTTCTAACCTGTTGCCT (site TGTAATACTAG)”, the “recombinant barcode read abundance (log10)” value falls from 1.43 to 0.0354.

“TGTAATACTTGGGTTCTAACCTGTTGCCT (site TGTAATCCTAG)” and “TGTAATACTTGGGTTCTAACCTGTTGCCT (site TGTAATGCTAG)” are within 0.2 log units of each other in “recombinant barcode read abundance (log10)” value: 0.0997 for the first, 0.147 for the second.

Compared with “TGTAATACTTGGGTTCTAACCTGTTGCCT (site TGTAATTCTAG)”, “TGTACCTCTTGGGTTCTAACCTGTTGCCT (site TGTACCTCTAG)” is higher in “recombinant barcode read abundance (log10)” value: 0.121 for the first, 0.522 for the second.

“TGTACCTCTTGGGTTCTAACCTGTTGCCT (site TGTCCCTCTAG)” and “TGTACCTCTTGGGTTCTAACCTGTTGCCT (site TGTGCCTCTAG)” are within 0.2 log units of each other in “recombinant barcode read abundance (log10)” value: 0.00782 for the first, 0.0235 for the second.

“TGTACCTCTTGGGTTCTAACCTGTTGCCT (site TGTTCCTCTAG)” and “TGTACGCCTTGGGTTCTAACCTGTTGCCT (site GAGGTAACTGT)” are within 0.2 log units of each other in “recombinant barcode read abundance (log10)” value: 0.0524 for the first, 0.0511 for the second.

With “TGTACGCCTTGGGTTCTAACCTGTTGCCT (site TGTACGCCTAG)” the “recombinant barcode read abundance (log10)” value was 0.0173.
